Data on two compounds can be found in US20050118675A1, “Heptahelix receptor and its use as leukotriene B4 receptor” (Owman Investment Ltd., priority 1997, published 2005).

In assay [1] the test system is sham-transfected COS-7 cells. The assay is described as follows: [3H]LTB4 binding to membranes from sham-transfected COS-7 cells. Further details: species or system African green monkey. As to the method:
(§1) Intact plasmid DNA (10-25 μg) of the cDNA clone, Lyme21-9 (1), was transfected using the calcium phosphate precipitation method. Chinese hamster ovary cells (CHO-K1) were used to establish stable expression of the corresponding receptor, CMKRL1. The pCDneo vector was co-transfected to allow for selection with G-418)Geneticin, 500 μg/ml). Single resistant colonies were isolated to obtain homogenous cell lines, and appropriate expression of the corresponding mRNA were verified by Northern blot hybridization with cDNA probes. SV40 transformed African green monkey kidney cells (COS-7) were used for transient expression. These cells were harvested after 48 hrs for preparation and isolation of membranes. Sham-transfected cells were used as controls throughout.
The transiently transfected COS-7 cells were washed with PBS, which was replaced with 50 mM TRIS/HCl buffer (pH 7.4) containing 1 mM EGTA and 5 mM MgCl2, and scraped off. After homogenization for 20 sec in a Polytron homogenizer (Brinkmann, setting 5.5) the material was centrifuged at 20,000 rpm for 30 min at 4° C., followed by washing through homogenization in the TRIS binding buffer and subsequent recentrifugation, which was repeated twice. The pellet was finally resuspended by homogenization and stored in liquid nitrogen until used. […]

For assay [2], the system named is sham-transfected control cells. The assay is described as follows: Intracellular calcium (Fura-2) in sham-transfected CHO control cells. The assay is classed as cell-based, Chinese hamster. Particulars: any dose level, shown for 1000 nM. As to the method:
as §1, with “These cells were harvested after 48 hrs for preparation and isolation of membranes. Sham-transfected cells were used as controls throughout.” left out
Transfected cells were seeded into 96-well plates (Corning-Costar) by dissociating confluent cultures using PBS containing 2 mM EDTA, diluting the resulting suspension 20×, and adding 50 μl per well. […] After 3 washes in extracellular medium buffer (135 mM NaCl, 4.6 mM KCl, 1.2 MM MgCl2, 1.5 mM CaCl2, 11 mM glucose, 11 mM Hepes, pH 7.4), the plates were mounted on the stage of a Nikon inverted fluorescence microscope attached to an SIT-camera and an image analysis system (Photon Technology International). […]
Agonists were added in 50 μl of extracellular medium buffer and mixed thoroughly with the original contents of the well. Fluorescence images were obtained by alternate excitation at 340 and 380 nm, and the emitted light was measured at 510 nm. […]
Background: Calcium assays in cells follow changes in intracellular calcium, usually with a dye or a luminescent sensor.

Assay [3] has as its target T1, CMKRL1 (Homo sapiens, UniProt Q15722).
T1 construct: A full-length cDNA (Lyme21-9) encoding a novel putative seven-transmembrane (7TM) domain receptor, named CMKRL1; expressed in transfected cells
The assay is described as follows: Intracellular calcium (Fura-2) in CHO cells stably expressing CMKRL1. The assay is classed as cell-based. Particulars: 1000 nM LTB4. As to the method: as §1, with “throughout. […]” for “throughout.”
Agonists were added in 50 μl of extracellular medium buffer and mixed thoroughly with the original contents of the well. Fluorescence images were obtained by alternate excitation at 340 and 380 nm, and the emitted light was measured at 510 nm. The software configuration allowed for storage of fluorescence information from groups of cells, which could then be analyzed separately. Intracellular calcium concentrations were calibrated using the method described by William and Fay (5) and calculated from the aforementioned radiometric images using the mathematical relationship described by Grynkiewicz et al. (6). […]

The target of assay [4] is T1, CMKRL1. Put plainly: [3H]LTB4 saturation binding to membranes from COS-7 cells transiently transfected with Lyme21-9 cDNA. The settings on record: for Bmax: Scatchard analysis, COS-7 membranes, 4° C.; for binding sites identified: saturation binding, linear Scatchard plot. On the procedure:
as §1
The transiently transfected COS-7 cells were washed with PBS, which was replaced with 50 mM TRIS/HCl buffer (pH 7.4) containing 1 mM EGTA and 5 mM MgCl2, and scraped off. After homogenization for 20 sec in a Polytron homogenizer (Brinkmann, setting 5.5) the material was centrifuged at 20,000 rpm for 30 min at 4° C., followed by washing through homogenization in the TRIS binding buffer and subsequent recentrifugation, which was repeated twice. The pellet was finally resuspended by homogenization and stored in liquid nitrogen until used. For the binding studies, membrane material corresponding to 30 μg protein ([…]) was blended with ice-cold binding buffer (0.02 M Hepes buffer containing 10 mM CaCl2 and MgCl2) to a final volume of 70 μl and added to wells in a 96-well polypropylene plate. […] Each data point is the result of the mean of triplicate wells from three separate experiments, which have in turn been averaged.

The structures appear in SMILES notation. “Also recorded” adds a separate entry of the source.

T1 sequence (Q15722 whole entry): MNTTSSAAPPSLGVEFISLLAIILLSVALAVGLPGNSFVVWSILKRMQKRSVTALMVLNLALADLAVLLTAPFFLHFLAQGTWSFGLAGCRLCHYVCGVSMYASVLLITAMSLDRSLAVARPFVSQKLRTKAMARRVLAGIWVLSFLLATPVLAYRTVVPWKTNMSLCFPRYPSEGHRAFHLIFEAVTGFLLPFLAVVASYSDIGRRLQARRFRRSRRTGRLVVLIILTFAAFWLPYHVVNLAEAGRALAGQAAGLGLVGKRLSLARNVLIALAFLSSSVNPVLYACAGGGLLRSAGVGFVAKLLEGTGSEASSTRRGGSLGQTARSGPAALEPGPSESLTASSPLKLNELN

Take `CCCCC/C=C\C[C@@H](O)/C=C/C=C/C=C\[C@@H](O)CCCC(=O)O` [LTB4, leukotriene B4]: the specific binding result in assay [1] is given as “No binding”. Further, the “effect on intracellular calcium in sham-transfected control cells” value in assay [2] is “completely without effect; also recorded: No response; also recorded: No binding or activation”. Moreover, the “increase in intracellular calcium in calcium-free medium” value at CMKRL1 [3] is “no longer included any significant increase; also recorded: No response”.

In the case of `CCCCC/C=C\C[C@@H](O)/C=C/C=C\C=C\[C@@H](O)CCCC(=O)O` [[^3H]LTB4], the specific binding result in assay [1] was “no specific binding”. At CMKRL1 [4], the Bmax came out at 17.0 ± 2.0 pmoles/mg protein and the “binding sites identified” value was “single class of high-affinity binding sites”. Besides, at CMKRL1 [4] (listed as tritiated LTB4), the Bmax worked out at 17.0 pmoles/mg protein and the “binding sites identified” value was “binds with high affinity to a single receptor population”. Also, the “Non-specific binding as share of the total binding” value on CMKRL1 [4] (binding of tritiated ligand in the presence of 1 μM non-labelled ligand) was “less than 15%”.
